Data on 16 molecules can be found in patent publication US20220259167A1 (UNIVERSITY HEALTH NETWORK, priority 2019, published 2022).

Like-named read-outs stand apart in the source and are kept apart here.

The target in test [1] is biotinylated amyloid-beta(1-42) (bioAbeta42) (Homo sapiens, UniProt P05067). Format: biochemical.
In test [2] the test system is SIM-A9 cells. In words: Anti-inflammation assay: TNF-α production from LPS stimulated SIM-A9 cells (ELISA). Format: cell-based. For orientation: An ELISA detects its analyte on a solid surface through an enzyme-linked reagent.
The target in test [3] is Aβ 1-40 (Homo sapiens, UniProt P05067). In words: Aβ ThT aggregation (fibrillization) assay. Format: biochemical.
Test [4] has as its system differentiated THP-1 cells. The experiment in a line: Anti-inflammatory cytokine levels (M2 indicators) during neurotoxicity assay. Type of test: cell-based, human. The following applies: FIG. 6.
From the text: This study used differentiated (using phorbol myristate acetate, PMA) human acute monocytic leukemia cells, THP-1, cultured in RPMI 1640 medium supplemented with additives. […] On treatment with PMA, the suspension (floating cells) mature to a highly adherent phenotype with increased phagocytic ability (macrophage/microglia like). Typically, after PMA differentiation THP-1 monocytes, display increased cell surface expression of CD11b and CD14. PMA differentiated macrophage/microglia with a combination of LPS/IFNγ/amyloid beta peptide were used to activate the cells; and small synthetic molecules were tested. The cell-free supernatant generated from microglia were then transferred to previously mature neuronal cells lines. The THP-1 monocytes should have adhered to the plate by now; these are defined as M0 macrophages. Remove the differentiating medium containing PMA and add the Experimental medium with stimulants at a final concentration of IFNγ 400 ng/ml and LPS 1 μg/ml. These stimulants are the first stimulus for the conversion into M1 macrophages. Keep the first stimulus on for three hours and add 25 μM of compounds in the required wells (This is aimed at converting M1→M2 macrophages/microglia like cells). […]
Test [5] concerns SH-SY5Y. The experiment in a line: Neurotoxicity (Ntox) assay: SH-SY5Y viability after supernatant from activated differentiated THP-1 cells. Type of test: cell-based, human. The following applies: 25 μM compound on THP-1; SH-SY5Y viability 72 h post-addition of supernatant. From the text: This study used differentiated (using phorbol myristate acetate, PMA) human acute monocytic leukemia cells, THP-1, cultured in RPMI 1640 medium supplemented with additives. Earlier studies with THP-1 cell line indicate that upon LPS/IFNγ activation, these cells release neurotoxic factors [Cheung Y T, et al. Neurotoxicology. 2009; 30(1):127-35]. These are remarkably plastic cells, which can potentially polarize to multiple cell lineages on the application of specific stimuli. On treatment with PMA, the suspension (floating cells) mature to a highly adherent phenotype with increased phagocytic ability (macrophage/microglia like). Typically, after PMA differentiation THP-1 monocytes, display increased cell surface expression of CD11b and CD14. PMA differentiated macrophage/microglia with a combination of LPS/IFNγ/amyloid beta peptide were used to activate the cells; and small synthetic molecules were tested. The cell-free supernatant generated from microglia were then transferred to previously mature neuronal cells lines.
Seed (0.5×10^6) THP-1 cells in each well of a 12-well tissue culture plate in warm complete growth medium up to 500 μl to 1 ml per well. […]

Where [6] appears, read: Example 5, ND = inhibition activity not detected over 200 μM, read-out: Inhibition of Aβ oligomerization, μM IC50.
The mark [7] stands for this setting: SIM-A9, read-out: TNF-α Inhibition.
[8] abbreviates: read-out: Inhibition of Aβ fibrillization at concentration 100 μM, Inhibition %, compound at 100 μM, Example 5, versus DMSO control.
The mark [9] stands for this setting: compound at 100 μM, Example 5, versus DMSO control, read-out: Inhibition of Aβ fibrillization at concentration 100 μM, Inhibition %.
[10] abbreviates: compound 2.7 μM, LPS stimulated SIM-A9 cells, read-out: TNF-α Inhibition.
The mark [11] stands for this setting: compound at 100 μM, Example 5, versus DMSO control.
Where [12] appears, read: read-out: % inhibition of Aβ fibrillization (at 100 μ M), compound at 100 μM, Example 3.

Sequence of biotinylated amyloid-beta(1-42) (bioAbeta42) (P05067 672-713): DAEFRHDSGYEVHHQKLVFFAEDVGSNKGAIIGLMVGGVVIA
Sequence of Aβ 1-40 (P05067 672-711): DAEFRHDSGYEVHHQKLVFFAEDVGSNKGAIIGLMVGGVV

As for `COc1ccc(C(O)C(F)(F)F)c(NCc2cscn2)c1` (centres unmarked) [WW005], in test [1] (setting [6]), the IC50 worked out at 130 ± 28.4 µM. For the same molecule, the inhibition at 2.7 µM in test [2] (setting [7]) is 27%. The inhibition at 100 µM in test [3] (setting [8]) was determined as 6.49%.
For `OC(c1ccc(F)cc1NCc1ccco1)C(F)(F)F` (centres unmarked) [WW011, 2,2,2-Trifluoro-1-(4-fluoro-2-((furan-2-ylmethyl)amino)phenyl) ethan-1-ol] the same measures were 153 ± 48 µM, 25.9% and 5.14%.
For `NS(=O)(=O)c1cc(C(=O)O)c(NCc2ccco2)cc1Cl` [Furosemide, 4-Chloro-2-((furan-2-ylmethyl)amino)-5-sulfamoylbenzoic Acid, reference compound], the IC50 in test [1] (setting [6]) was greater than 200 µM. In addition, the “Concentrations of anti-inflammatory cytokines (IL-4, IL-10, IL-1RA, Arginase; M2 indicators)” value in test [4] was “increases the concentrations of anti-inflammatory cytokines”. Moreover, the inhibition at 100 µM in test [3] (setting [9]) stood at 8.56%.
On to `CNS(=O)(=O)c1cc(C(N)=O)c(NCc2ccco2)cc1Cl` [WW101, 4-Chloro-2-((furan-2-ylmethyl)amino)-5-(N-methylsulfamoyl)benzamide], for which the IC50 in test [1] (setting [6]) was 82.4 ± 28.5 µM. Also, the inhibition at 2.7 µM in test [2] (setting [10]) is 27%. In addition, the “Inhibition of Aβ fibrillization at concentration 100 μM, Inhibition %” value (from here on “Inhibition of Aβ fibrillization … Inhibition %”) in test [3] (setting [11]) was “Pro- fibrillization”.
Consider `CCCCCCNS(=O)(=O)c1cc(C(=O)O)c(NCc2ccco2)cc1Cl` [WW064, 4-Chloro-2-((furan-2-ylmethyl)amino)-5-(N-hexylsulfamoyl) Benzoic Acid], for which the IC50 in test [1] (Example 2, read-out: Anti-Aβ oligomerization IC50) is 46.1 µM; in test [1] (setting [6]), 47.8 ± 14.3 µM. The inhibition at 100 µM is 39.2% in test [3] (compound at 100 μM, Example 3, read-out: % inhibition of Aβ fibrillization (at 100 μ M)) and 39.2% in test [3] (setting [9]).
For the molecule `OC(c1ccc(Cl)cc1NCc1ccco1)C(F)(F)F` (centres unmarked) [WW013, 1-(4-Chloro-2-((furan-2-ylmethyl)amino)phenyl)-2,2,2-trifluoroethan-1-ol], the IC50 in test [1] (setting [6]) is greater than 200 µM. In test [2] (setting [7]), the inhibition at 2.7 µM is 33%. Besides, the inhibition at 100 µM in test [3] (setting [8]) is 60.7%.
Consider `CNC(=O)c1cc(S(=O)(=O)NC)c(Cl)cc1NCc1ccco1` [WW102, 4-Chloro-2-((furan-2-ylmethyl)amino)-N-methyl-5-(N-methylsulfamoyl)benzamide], for which the IC50 in test [1] (setting [6]) turned out to be 103 ± 22.1 µM. In test [2] (setting [10]), the inhibition at 2.7 µM was 25%. Also, the “Inhibition of Aβ fibrillization … Inhibition %” value in test [3] (setting [11]) is “Pro- fibrillization”.
Consider `O=C(O)c1ccc(Cl)cc1NCc1ccco1` [WW001, 4-Chloro-2-((furan-2-ylmethyl)amino) Benzoic Acid], for which, in test [1] (setting [6]), the IC50 was greater than 200 µM. Further, in test [3] (setting [9]), the inhibition at 100 µM is 20.2%.
Consider `CNS(=O)(=O)c1cc(C(=O)OC)c(NCc2ccco2)cc1Cl` [WW100], for which the IC50 in test [1] (setting [6]) is 56 ± 26.6 µM. The inhibition at 2.7 µM in test [2] (setting [10]) came out at 31%. The inhibition at 100 µM in test [3] (setting [9]) stood at 27.1%.
As for `COc1ccc(C(O)C(F)(F)F)c(NCc2ccco2)c1` (centres unmarked) [WW003, 2,2,2-trifluoro-1-(2-((furan-2-ylmethyl)amino)-4-methoxyphenyl) ethan-1-ol], the IC50 in test [1] (setting [6]) is greater than 200 µM. Besides, the inhibition at 2.7 µM in test [2] (setting [7]) turned out to be 28%. For the same molecule, in test [3] (setting [8]), the inhibition at 100 µM is 36.8%.
As for `O=C(O)c1cc(S(=O)(=O)N2CCCCC2)c(Cl)cc1NCc1ccco1` [WW096, 4-Chloro-2-((furan-2-ylmethyl)amino)-5-(piperidin-1-ylsulfonyl) Benzoic Acid], in test [1] (setting [6]), the IC50 was greater than 200 µM. The inhibition at 2.7 µM in test [2] (setting [10]) was determined as 11%. In addition, in test [3] (setting [9]), the inhibition at 100 µM turned out to be 19.1%.
Take `CN(C)S(=O)(=O)c1cc(C(=O)O)c(NCc2ccco2)cc1Cl` [WW062, 4-Chloro-5-(N, N-dimethylsulfamoyl)-2-((furan-2-ylmethyl)amino) Benzoic Acid]: in test [1] (setting [6]), the IC50 came to 113 ± 22.8 µM. Moreover, the “Inhibition of Aβ fibrillization … Inhibition %” value in test [3] (setting [11]) is given as “Pro- fibrilliza- tion”.
As to `O=C(O)c1ccccc1NCc1ccccc1` [2-(benzylamino)benzoic acid], the “Rescue of neuronal cells under Aβ-induced neurotoxicity / neuroinflammation” value in test [5] was “able to rescue neuronal cells under Aβ-induced neurotoxicity”.
In the case of `OC(c1ccc(Cl)cc1NCc1cscn1)C(F)(F)F` (centres unmarked) [WW021, 1-(4-Chloro-2-((thiazol-4-ylmethyl)amino)phenyl)2,2,2-trifluoroethan-1-ol], in test [1] (setting [6]), the IC50 was greater than 200 µM. In test [2] (setting [7]), the inhibition at 2.7 µM amounted to 38%. For the same molecule, the inhibition at 100 µM in test [3] (setting [8]) is 27.9%.
As for `OC(c1ccc(Br)cc1NCc1cscn1)C(F)(F)F` (centres unmarked) [WW017, 1-(4-Bromo-2-((thiazol-4-ylmethyl)amino)phenyl)-2,2,2-trofluoroethan-1-ol], in test [1] (setting [6]), the IC50 is greater than 200 µM. Further, the inhibition at 2.7 µM in test [2] (setting [7]) came out at 31%. The inhibition at 100 µM in test [3] (setting [12]) and in test [3] (setting [8]) was 33% in each case.
For the molecule `OC(c1ccc(Br)cc1NCc1ccco1)C(F)(F)F` (centres unmarked) [WW016, 1-(4-Bromo-2-((furan-2-ylmethyl)amino)phenyl)-2,2,2-trifluoroethan-1-ol], the IC50 in test [1] (setting [6]) is greater than 200 µM. For the same molecule, the inhibition at 2.7 µM in test [2] (setting [7]) is 34.8%. In addition, the inhibition at 100 µM in test [3] (setting [12]) was determined as 81.3%; in test [3] (setting [8]), 81%.

For orientation: IC50 means the concentration that inhibits the measured activity by half.
